According to patent US9993570B2, “Radiolabeled tracers for poly (ADP-ribose) polymerase-1 (PARP-1), methods and uses therefor” (Washington University, priority 2014, dated 2018):
“Also recorded” adds a separate entry of the source. Read-outs that look alike come from different tables or passages of the source.

Tests used:
PARP-1 = PARP-1 (Homo sapiens, UniProt P09874); experiment: PARP-1 enzymatic activity assay (chemical quantification of NAD+)
Text: This assay is based on the chemical quantification of NAD^+, i.e. the amount of NAD^+ consumed when the active PARP-1 C-terminal catalytic domain sequentially transfers ADP-ribose subunits from nicotinamide adenine dinucleotide (NAD^+) to protein acceptors.^7
High-specific-activity PARP-1 and activated DNA were purchased from Trevigen (Gaithersburg, Md.). All other reagents required for this assay including NAD^+ were purchased from Sigma-Aldrich (St. Louis, Mo.). Known PARP-1 inhibitor PJ-34, used as a control in these experiments, was synthesized in-house. […] A solution of 50 μg/mL of activated DNA was made in PARP assay buffer and 10 μL was added to each well. Stock solutions of test compounds were first prepared in DMSO, diluted to varying concentrations in PARP assay buffer, and 10 μL was added to each well. To initiate the reaction, 10 μL of 10 μg/mL PARP-1 enzyme in PARP assay buffer was added to each well. The total volume was 50 μL, bringing the final concentrations to 2 μg/mL PARP-1 enzyme, 10 μg mL activated DNA, and 100 nM NAD^+ per well. The plate was then incubated at room temperature for 20 min. The amount of NAD^+ present was then determined by first adding 20 μL 2 M KOH, followed by 20 μL of 20% acetophenone (in ethanol) to each well.

MDA-MB-231 tumors = experiment: microPET imaging with [18F]12, MDA-MB-231 tumors; format: in vivo, mice; conditions: for effect of drug treatment on tracer uptake outside the tumor (microPET images): MDA-MB-231 tumor-bearing mice; for effect of drug treatment on tracer uptake outside the tumor (microPET images) / effect of drug treatment on tumor uptake of tracer (microPET images): 50 mg/kg IP 30 minutes before imaging; for effect of drug treatment on tumor uptake of tracer (microPET images) / tracer uptake, percent of injected dose per ml, after drug treatment vs baseline: MDA-MB-231 tumors; for tracer uptake, percent of injected dose per ml, after drug treatment vs baseline: 30 minutes after IP injection, paired t test
Experimental: (§1) This example illustrates the visualization of tumor tissue in microPET in mice. MDA-MB-436 human breast cancer xenograft tumors in immune-deficient mice were visualized by PET using [^18F]12.
(§2) Tumor-bearing mice were placed in an induction chamber containing ˜2% isoflurane/oxygen and then secured to a custom double bed for placement of tail vein catheters; anesthesia was maintained via nose-cone at ˜1% isoflurane/oxygen for the dynamic imaging procedure. The mice were injected with 150-200 μCi of [^18F]12 and scanned for 0-60 min using Focus 220 and Inveon PET/CT scanners. The standard uptake values (SUVs) were generated from manually drawn regions of interests for tumors and surrounding ‘background’ tissue. Visualization of specific uptake was determined by comparison of baseline scans with images acquired by tracer injection 20 minutes after pre-treatment with the blocking agents olaparib (50 mg/kg, IP) or 12 (1 mg/kg, IP).
(§3) This example illustrates uptake of Compound 12 ([^18F]WC-4-138) in mice. Mature female athymic nude mice (Charles River Laboratories) were implanted with 10^6 SCC1 cells or 10^7 MDA-MB-231 cells into the mammary fat pads. Mice bearing SCC1 tumors were imaged at 5 weeks and mice bearing MDA-MB-231 cells were imaged at 2.5 weeks after implant. Mice were anesthetized with 2% isoflurane/oxygen and maintained at 1% isoflurane/oxygen via nose cone throughout the imaging procedure. Whole animal microCT images were acquired on an Inveon PET/CT scanner. The mice were injected via tail vein with 11.36±0.5 MBq (307±13 μCi) of [^18F]WC(4)-138 and underwent a 60 minute dynamic scan using Focus 220 or Inveon PET/CT scanners. The microPET and microCT images were coregistered using Integrated Research Workflow software (Siemens). Regions of interest were drawn over tumors to determine time activity curves. For drug treatment studies, animals reached intraperitoneal injections of 50 mg/kg olaparib or iniparib 30 minutes before imaging. Mice were imaged at baseline, or 30 minutes after IP injection of olaparib or iniparib. Arrows indicate location of tumors as identified on CT.
(§4) In FIG. 8, mice were imaged at baseline, or 30 minutes after IP injection of olaparib or iniparib. (A) The percent of injected dose per ml was calculated for each MDA/MB-231 tumor at baseline or after drug treatment. […] Tracer uptake was unchanged in iniparib-treated mice (p=0.1098 as determined by a paired t test, n=6 tumors).

SCC1 tumors = experiment: microPET imaging with [18F]WC-4-138, SCC1 tumors; format: in vivo, mice; conditions: 30 minutes after IP injection, paired t test
Text: as §3, with “Mice were imaged at baseline, or 30 minutes after IP injection of olaparib or iniparib. Arrows indicate location of tumors as identified on CT.” left out
as §4

[1] = system: head and neck cell lines SCC1 and SCC25; experiment: [18F]WC-4-138 uptake in cell culture, head and neck lines; format: cell-based; conditions: 10 μM drug prior to incubation with tracer
Experimental: In these experiments, the head and neck squamous cell carcinoma lines SCC1, SCC15, and SCC25 (ATCC) were propagated in Dulbecco's Modified Eagle's Medium (DMEM, Gibco) supplemented with 10% Fetal Bovine Serum (FBS, Gibco), Penicillin-Streptomycin (P/S, Gibco), and 100 ng/ml hydrocortisone (Sigma-Aldrich). The small cell lung cancer lines NCI-h69 and NCI-h82 (ATCC) were propagated m RPMI Medium (Gibco) supplemented with 10% FBS and 1% P/S. The human breast cancer cell line MDA-MB-231 (ATCC) was propagated in Eagle's Minimum Essential Medium (Gibco) supplemented with 5% FBS, 2% Vitamins for MEM (Gibco), 1% 200 mM L-glutamine (Gibco), 1% 10 mM Non-Essential Amino Acid (NEAA, Gibco).
For each experimental replicate, approximately 1 μCi of [^18F]WC-4-138 was diluted in 1 ml of cell culture medium and added to 10^6 cells. After 5, 30, or 60 minutes, the medium was collected and cells were washed twice in 0.7 ml Phosphate Buffered Saline (PBS, Gibco). Adherent cells were collected by scraping the cell culture dish and transferring to a microfuge tube. Radioactivity was measured in the collected medium, PBS, or cell pellets. Protein from the cell pellet was quantified using a […]. All data were decay-corrected and normalized to total protein quantity in the cell pellet. For drug treatment studies, cells were incubated with 10 μM Olaparib or Iniparib twenty-hours prior to incubation with [^18F]WC-4-138.
The head and neck cell lines SCC1 and SCC25 constitutively take up small amounts of tracer, registering as 0.001-0.002 μCi/μg in the cell pellet (FIG. 5A). […] Radioactivity was measured in head and neck squamous cell cancer (HNSCC) lines (SCC1 and SCC25) or small cell lung cancer (SCLC) lines (NCI-h69 and NCI-h82) after incubation with [^18F]WC-4-138 for 5, 30, or 60 minutes (n=3 at each time point). […] PARP activity was measured in HNSCC or lung SCLC cells. (FIG. 5C-D) [^18F]WC-4-138 uptake was measured in HNSCC cell lines treated with olaparib or iniparib. […]

MDA-MB-436 tumors = experiment: microPET imaging with [18F]12, MDA-MB-436 xenograft tumors; format: in vivo, mice; conditions: olaparib 50 mg/kg i.p. or 12 1 mg/kg i.p., 20 min prior to tracer
Experimental: as §1
MDA-MB-436 and MDA-MB-231 human breast cancer cells were maintained in cell culture under standard conditions with 5% CO2 atmosphere using Eagle's minimum essential medium (with Earle's balanced salt solution and 2 mM L-glutamine) supplemented with 2 mM E-glutamine, 1 mM sodium pyruvate, 0.1 mM non-essential amino acids 2% vitamins for MEM, and 5% fetal bovine serum. Cells in exponential growth were trypsinized and harvested for tumor implantation. After counting, cells were re-suspended in ice-cold 1:1 Matrigel and PBS to give the desired concentration and held on ice.
Mature female athymic nu/nu mice from Charles River Laboratories are allowed to acclimate in an AALAC accredited housing facility for at least 1 week prior to tumor implantation for these serial imaging studies. Female nu/nu mice were implanted in the mammary fat pads (near the auxiliary lymph nodes) with ˜8×10^6 MDA-MB-436 breast cancer cells in ˜100 μL of 1:1 Matrigel:PBS. Imaging studies were conducted 2-3 weeks post implantation.
as §2

[2] = read-out: IC50 (nM), inhibition of PARP-1, mean ± SD, at least three independent experiments

Sequence of PARP-1 (P09874 whole entry): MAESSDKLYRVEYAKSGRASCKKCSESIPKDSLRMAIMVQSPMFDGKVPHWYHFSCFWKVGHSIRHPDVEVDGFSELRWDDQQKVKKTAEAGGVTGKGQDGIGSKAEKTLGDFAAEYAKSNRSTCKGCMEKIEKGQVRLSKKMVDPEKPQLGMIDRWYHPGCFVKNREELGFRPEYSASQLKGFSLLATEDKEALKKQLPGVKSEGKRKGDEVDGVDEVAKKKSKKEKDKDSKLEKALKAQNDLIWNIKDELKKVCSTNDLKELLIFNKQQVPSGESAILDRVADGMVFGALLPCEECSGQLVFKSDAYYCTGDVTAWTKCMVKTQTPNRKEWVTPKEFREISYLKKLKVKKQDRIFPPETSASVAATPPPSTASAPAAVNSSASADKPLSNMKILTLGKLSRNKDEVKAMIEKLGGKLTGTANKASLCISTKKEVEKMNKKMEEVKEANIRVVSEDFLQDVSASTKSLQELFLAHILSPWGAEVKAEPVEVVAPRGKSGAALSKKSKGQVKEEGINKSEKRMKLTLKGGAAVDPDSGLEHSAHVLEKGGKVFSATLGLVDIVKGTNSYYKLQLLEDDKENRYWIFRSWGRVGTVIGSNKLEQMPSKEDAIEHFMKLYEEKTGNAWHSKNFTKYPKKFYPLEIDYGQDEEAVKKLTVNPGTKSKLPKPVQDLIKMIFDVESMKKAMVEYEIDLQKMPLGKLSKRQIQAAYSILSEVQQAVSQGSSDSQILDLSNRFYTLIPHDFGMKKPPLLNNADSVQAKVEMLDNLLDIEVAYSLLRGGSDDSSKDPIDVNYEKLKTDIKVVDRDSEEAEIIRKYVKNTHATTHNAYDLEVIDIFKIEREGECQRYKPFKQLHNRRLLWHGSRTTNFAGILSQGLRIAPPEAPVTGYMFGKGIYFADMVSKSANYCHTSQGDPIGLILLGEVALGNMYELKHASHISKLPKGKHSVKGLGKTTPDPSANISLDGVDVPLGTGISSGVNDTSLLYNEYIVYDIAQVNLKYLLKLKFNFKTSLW

NC(=O)c1cccc2[nH]c(-c3ccc(OCCF)cc3)nc12 [Compound 8, 2-(4-(2-Fluoroethoxy)phenyl)-1H-benzo[d]imidazole-4-carboxamide]
IC50 (PARP-1; read-out: IC50, inhibition of PARP-1, unit inferred): 10.8 nM

C#CCOc1ccc(-c2nc3c(C(N)=O)cccc3[nH]2)cc1 [Compound 9, 2-(4-(Prop-2-ynloxy)phenyl)-1H-benzo[d]imidazole-4-carboxamide]
IC50 (PARP-1; [2]): 25.8 ± 3.3 nM

O=C1NCCn2c(-c3ccc(OCCF)cc3)nc3cccc1c32 [Compound 12, 5,6-Dihydro-2-(4-(2-fluoroethoxy)phenyl)-imidazo [4,5,1-jk][1,4]benezodiazepin-7(4H)-one]
IC50 (PARP-1): 63 nM

C#CCOc1ccc(-c2nc3cccc4c3n2CCNC4=O)cc1 [Compound 13, 5,6-Dihydro-2-(4-(prop-2-ynyloxy)phenyl)-imidazo[4,5,1-jk][1,4]benzodiazepine-7(4H)-one]
IC50 (PARP-1; [2]): 18.7 ± 2.7 nM

O=C1NCCn2c(-c3ccc(OCc4cn(CCF)nn4)cc3)nc3cccc1c32 [Compound 15, 5,6-Dihydro-2-(4-((1-(2-fluoroethyl)-1H-1,2,3-triazol-4-yl)methoxy)phenyl)-imidazo[4,5,1-jk][1,4]benzodiazepin-7(4H)-one]
IC50 (PARP-1; [2]): 22.1 ± 6.3 nM

NC(=O)c1ccc(I)c([N+](=O)[O-])c1 [iniparib]
effect of drug treatment on tracer uptake outside the tumor (microPET images) (MDA-MB-231 tumors): abolishes said uptake in other types of cells
effect of drug treatment on tumor uptake of tracer (microPET images) (MDA-MB-231 tumors): does not effect the uptake
tracer uptake, percent of injected dose per ml, after drug treatment vs baseline (MDA-MB-231 tumors): unchanged
tracer uptake, percent of injected dose per ml, after drug treatment vs baseline (SCC1 tumors): unchanged
effect of drug on [18F]WC-4-138 uptake in HNSCC cell lines [1]: not

O=C(c1cc(Cc2n[nH]c(=O)c3ccccc23)ccc1F)N1CCN(C(=O)C2CC2)CC1 [olaparib]
effect of pretreatment on [18F]12 uptake in MDA-MB-436 tumors (MDA-MB-436 tumors): decreased [^18F]12 uptake in the tumors to the background tissue activity levels; also recorded: significantly decreased [^18F]12 uptake; also recorded: blocked
effect of pretreatment on [18F]12 uptake in MDA-MB-436 tumors (MDA-MB-436 tumors; listed as olaparib/AZD2281): blocked
effect of drug treatment on tracer uptake outside the tumor (microPET images) (MDA-MB-231 tumors): tracer is still present in other areas of the section
effect of drug treatment on tumor uptake of tracer (microPET images) (MDA-MB-231 tumors): abolished
tracer uptake, percent of injected dose per ml, after drug treatment vs baseline (MDA-MB-231 tumors): significantly reduced
effect of pretreatment on [18F]12 uptake in MDA-MB-231 tumor (MDA-MB-231 tumors; i.p. 50 mg/kg, 20 min pretreatment): decreased [^18F]12 uptake
tracer uptake, percent of injected dose per ml, after drug treatment vs baseline (SCC1 tumors): significantly reduced
effect of drug on [18F]WC-4-138 uptake in HNSCC cell lines [1]: abolished
